Reference: patent US10233209B2, “Inhibitors of the farnesoid x receptor and uses in medicine” (The United States of America, as represented by the …, priority 2013, dated 2019)
Entries after “also recorded” stand apart in the source; their conditions may differ.

How the values were obtained:
[1] = Gly-MCA incubation with fecal extract (hydrolysis by gut bacteria); type: in vitro ADME, mouse; settings: 50 μM Gly-MCA; 0.1 mg/mL fecal extract; TβMCA positive control
Experimental: Fecal proteins were prepared from the fecal sample (0.5 g) in pH 7.4 PBS (5.0 ml) using sonication. Incubation was carried out in 3 mM sodium acetate buffer, pH 5.2, containing 0.1 mg/ml fecal protein and 50 μM Gly-MCA or T-β-MCA in a final volume of […]. After a 20-min incubation at 37° C., the samples were plunged into dry ice to stop the reaction. 100 of μL methanol was directly added to the […] reaction mixture. After centrifuging at 14,000 g for 20 min, […] of the supernatant was transferred to an autosampler vial subjected to analysis by a UPLC system coupled with a XEVO triple quadrupole tandem mass spectrometer (Waters Corp., Milford, Mass.).
Fecal extracts were prepared as described above. Gly-MCA (50 μM) was incubated with fecal extract (0.1 mg/mL). The negative control was fecal extract alone. The positive control was fecal extract (0.1 mg/mL) and TβMCA acid (50 μM).

[2] = Gly-MCA in mouse ileum after oral gavage; type: in vivo; settings: oral gavage 0, 1, 5, 50 mg/kg in corn oil
Experimental: Gly-MCA was given to mice via oral gavage at dosages of 0, 1, 5, and 50 mg/kg of Gly-MCA, with the Gly-MCA dosed in corn oil. Gly-MCA was detected using ultra performance liquid chromatography-electrospray ionization-quadrupole time-of-flight mass spectrometry (UPLC-ESI-QTOFMS).

[3] = liver toxicity 24 h after Gly-MCA dosing (ALT, AST); type: in vivo, mouse; settings: 1, 5, 50 mg/kg; after 24 h; vs vehicle
Experimental: Mice were dosed with vehicle or Gly-MCA at 1 mg/kg, 5 mg/kg, and 50 mg/kg. After 24 h, […] (ALT) and […] (AST) levels were determined and the results shown in FIG. 37.

[4] = test system: HFD-treated C57BL/6N mice; test: Gly-MCA in mice fed a high-fat diet (prevention of obesity, insulin resistance, NAFLD); type: in vivo, mouse
Description: (§1) High-fat diet (HFD) (60% kcal consisting of fat) was purchased from Bioserv. […] Fxr^fl/fl and Fxr^ΔIE (Kim et al., J. Lipid Res. 48:2664-2672, 2007) mice were backcrossed with C57BL/6N mice for over 10 generations. For the antibiotic (the combination of bacitracin, neomycin, and streptomycin) study, male C57BL/6N mice from 6 weeks of age were fed a high-fat diet (“HFD) and administered 0.1% (w/v) of each compound (the combination of bacitracin, neomycin, and streptomycin) in the drinking water. […] For TβMCA in vivo, male C57BL/6N mice from 6 weeks of age were fed a HFD and treated with the antibiotics (0.1% of each compound of bacitracin, neomycin, and streptomycin combination) for 3 days. Vehicle (saline), TCA (400 mg/kg body weight, dissolved in saline) or a combination of TCA and TβMCA (400 mg/kg body weight of each compound, dissolved in saline) were orally administered to the mice and followed by a second dose 12 h later. The mice were killed 2 h later for tissue collection. For the Gly-MCA study, Gly-MCA was custom synthesized. Bacon-flavored dough pills were produced as described (Walker et al., Toxicol. Appl. Pharmacol. 260:65-69, 2012) for oral administration of Gly-MCA (0.25 mg Gly-MCA/pill, dose of 10 mg/kg). Mice were trained to eat the dough pills prior to the study. For the prevention of obesity, insulin resistance and NAFLD, male wild-type (WT) C57BL/6N mice, 6- to 8-weeks-old, were fed a high-fat diet (Bio-Serv, Frenchtown, N.J.; 60 kcal % fat) from the age of 6 weeks and were orally administered with vehicle (control pills) or Gly-MCA (0.25 mg/pill/day, dose 10 mg/kg). C57BL/6N mice fed a high-fat diet for 12 weeks were administered (0.25 mg Gly-MCA/pill, dose of 5 mg/kg). Leptin-deficient db/db mice, 6- to 8-weeks-old, fed a chow diet, were administered Gly-MCA (0.25 mg/pill/day, 10 mg/kg). Mice were housed individually in their home cages. Cumulative food intake and TEEbal were measured for 1 week in vehicle and Gly-MCA-treated mice from 6 to 7 weeks of HFD. TEEbal was measured as previously described (Ravussin et al., Int. J. Obesity 37:399-403, 2013).
The mucosa of intestine was gently scraped and liver was taken and both were flash frozen in liquid nitrogen and stored at −80° C. until RNA was prepared. RNA was extracted from frozen intestine and liver using TRIzol reagent (Invitrogen, Carlsbad, Calif.). cDNA was synthesized from 1 μg total RNA using Superscript II reverse transcriptase (Invitrogen, Carlsbad, Calif.). qPCR primers were designed with qPrimerDepot. Measured mRNA levels were normalized to those of 18S ribosomal RNA and expressed as fold change relative to those of control group.
Lipidomics analysis: For serum lipidomics analysis 25 μl serum were extracted by 4-fold cold chloroform:methanol (2:1) solution containing 2 μM LPC (17:0), PC (17:0), SM (17:0) and CER (17:0) (Avanti Polar Lipids, Alabaster, Ala.) as internal standards. The samples were vortexed for 30 s and then allowed to stand for 5 min at room temperature. The mixture was centrifuged at 13,000 rpm for 5 min and then the lower organic phase was collected and evaporated at room temperature under vacuum. The residue was dissolved in chloroform:methanol (1:1), followed by diluting with isopropanol:acetonitrile:H2O (2:1:1) containing 2 μM PC (17:0) prior to UPLC-MS analysis. For tissue lipidomics analysis, about 50 mg of accurately weighted tissues were homogenized with 700 μL methanol: H2O (4:3) solution and then extracted using 800 μL chloroform containing 2 μM LPC (17:0), SM (17:0) and CER (17:0) as internal standards. The homogenate was incubated at 37° C. for 20 min followed by centrifuged for 20 min at 13,000 rpm. The lower organic phase was transferred to a new tube and dried under vacuum. The residue was suspended with 100 chloroform:methanol (1:1) solution and then diluted with isopropanol:acetonitrile:H2O (2:1:1) solution containing 2 μM PC (17:0) before injection. […]

db/db mice = test: Gly-MCA in leptin receptor-deficient (db/db) mice; type: in vivo, mouse
Description: as §1

HFD-induced obese mice = test: Gly-MCA in C57BL/6N mice made obese by 12 weeks of high-fat diet; type: in vivo, mouse; settings: 5 mg/kg
Description: as §1

## C[C@H](CCC(=O)NCC(=O)O)[C@H]1CC[C@H]2[C@@H]3[C@@H](O)[C@@H](O)[C@@H]4C[C@H](O)CC[C@]4(C)[C@H]3CC[C@]12C [Gly-MCA, glycine-β-muricholic acid]
[1]
  stability: hydrolysis to β-MCA on incubation with fecal extract: stable in the intestine
[2]
  Gly-MCA detected in mouse ileum (stability in intestine): stable in the intestine
[3]
  liver toxicity (serum ALT and AST levels): do not develop significant liver toxicity; also recorded: did not exhibit significant liver toxicity
[4]; Gly-MCA treatment for 9 weeks
  Gly-MCA levels in the feces: markedly increased
  Gly-MCA levels in the ileum: markedly increased
[4]; HFD
  liver weights: decreased
[4]; HFD 7 weeks
  hepatic lipid droplets (liver histology): marked reduction in hepatic lipid droplets
[4]; HFD 9 weeks
  Shp and Fgf15 mRNAs in the ileum: decreased
  expression of Shp mRNA in the liver: similar
  intestinal mRNAs of ceramide de novo synthesis-related genes (Sptic3, Cers4, Degs1, Smpd3): significantly lower
  serum ALT levels: significantly decreased
  serum AST levels: significantly decreased
  serum triglyceride levels: remained similar
[4]; HFD, 10 mg/kg oral, after one week of treatment
  body weight gain: reduced body weight gain
[4]; HFD, 6 to 7 weeks
  ITT: insulin sensitivity: significantly increased
  energy expenditure (TEEbal): increased the energy expenditure significantly
  food intake: comparable
[4]; HFD, after 7 weeks of treatment
  absolute fat mass (NMR): significantly decreased
[4]; HFD, relative to vehicle
  hepatic triglyceride contents decreased to: approximately 51%
[4]; after 6 weeks of HFD
  GTT: blood glucose levels after glucose loading: significantly reduced blood glucose levels
db/db mice; 6 weeks
  absolute fat mass (NMR): significantly decreased
  hepatic lipid droplets (liver histology): significant decrease in hepatic lipid droplets
  liver TG contents: dramatically improved
  liver weights: decreased
  serum ALT levels: significantly decreased
  serum AST levels: significantly decreased
  serum triglyceride levels: remained similar
db/db mice; Gly-MCA 6 weeks, 10 mg/kg
  body weight: reduced body weight
HFD-induced obese mice; HFD-induced obese mice, from two weeks of treatment
  body weight gain: reduced body weight gain
HFD-induced obese mice; obese mice, 6 weeks
  absolute fat mass (NMR): significantly decreased
  hepatic lipid droplets (liver histology): marked amelioration in hepatic lipid droplets
  liver weights: reduced
